Results published in paper PMC6211276, “Computer-aided molecular design of pyrazolotriazines targeting glycogen synthase kinase 3” (Journal of Enzyme Inhibition and Medicinal Chemistry, 2018).

Legend:
GSK-3β [1] = target: T1, GSK-3β (Homo sapiens, UniProt P49841); assay: Inhibition of GSK-3β (Kinase-Glo luminescent assay); type: biochemical; parameters: purchased Millipore (Millipore Ibérica SAU); details: for GSK-3 inhibition at a fixed compound concentration: fixed compound concentration of 10 μM; for IC50: mean of three independent determinations, 1 μM ATP
Description: Human recombinant GSK-3β and the pre-phosphorylated polypeptide substrate were purchased from Millipore (Millipore Ibérica SAU). Kinase-Glo Luminescent Kinase Assay was obtained from Promega (Promega Biotech Ibérica, SL)[29]. ATP and all other reagents were from Sigma Aldrich (St. Louis, MO). Assay buffer contained 50 mM HEPES (pH 7.5), 1 mM EDTA, 1 mM EGTA, and 15 mM magnesium acetate.
The method of Baki et al. was followed to analyse the inhibition of GSK-3β[30]. Kinase-Glo assays were performed in assay buffer using black 96-well plates. In a typical assay, 10 μL (10 μM) of test compound (dissolved in dimethyl sulfoxide [DMSO] at 1 mM concentration and diluted in advance in assay buffer to the desired concentration) and 10 μL (20 ng) of enzyme were added to each well followed by 20 μL of assay buffer containing 25 μM substrate and 1 μM ATP. […] After 30 min incubation at 30 °C, the enzymatic reaction was stopped with 40 μL of Kinase-Glo reagent. Glow-type luminescence was recorded after 10 min using a FLUOstar Optima (BMG Labtechnologies GmbH, Offenburg, Germany) multimode reader. The activity is proportional to the difference of the total and consumed ATP. The inhibitory activities were calculated based on maximal activities measured in the absence of inhibitor.

[2] = In vitro parallel artificial membrane permeability assay (PAMPA-BBB); details: for Papp at 4 h: pig, PAMPA, pH 7.4; for BBB prediction: predictive penetration in the CNS from PAMPA-BBB Pe; for ability to cross the BBB by passive permeation: prediction from PAMPA-BBB Pe
Description: Prediction of the brain penetration was evaluated using a parallel artificial membrane permeability assay (PAMPA). Ten commercial drugs, phosphate buffer saline solution at pH 7.4 (PBS), ethanol, and dodecane were purchased from Sigma Aldrich, Across organics and Fluka. […] Filter PDVF membrane units (diameter 30 mm, pore size 0.45 μm) from Symta were used to filter the samples. A 96-well plate UV, (Thermoscientific, Varioskan Lux multimode microplate reader) was used for the UV measurements. […] Then 100 μL of this compound stock solution was taken, and 1400 μL of ethanol and 3500 μL of PBS pH 7.4 buffer were added to reach 30% of ethanol concentration in the experiment. These solutions were filtered. The acceptor 96-well microplate was filled with 180 μL of PBS:ethanol (70:30). The donor 96-well plate was coated with 4 μL of porcine brain lipid in dodecane (20 mg mL^−1), and after 5 min, 180 μL of each compound solution was added. Then 1−2 mg of every compound to be determined for their ability to pass the brain barrier were dissolved in 1500 μL of ethanol and 3500 μL of PBS pH 7.4 buffer, filtered, and then added to the donor 96-well plate. […] During this time, the compounds diffused from the donor plate through the brain lipid membrane into the acceptor plate. After incubation, the donor plate was removed. The concentration of compounds and commercial drugs in the acceptor and the donor wells was determined by UV plate reader. Every sample was analysed at three to five wavelengths, in three wells and in three independent runs. […] Ten quality control compounds (previously mentioned) of known BBB permeability were included in each experiment to validate the analysis set.

SH-SY5Y cells = assay: Okadaic acid-induced tau hyperphosphorylation cell model (MTT cell viability); type: cell-based, human; details: for cell viability (MTT test) in OA-induced neurodegeneration cell model: compound 10 µM for 1 h, then OA 30 nM for 24 h
Description: Human SH-SY5Y cells were grown in DMEM supplemented with 10% FBS and 1% penicillin/streptomycin at 37 °C and 5% CO2 in an incubator. SH-SY5Y cells were seeded onto 96-well plate at 60.000 cells per well. 48 h later, cells were pre-incubated with the compounds at the desired concentration for 1 h and after that time okadaic acid (OA) (Sigma Aldrich, catalogue no: 09381) was added at a concentration of 30 nM and incubated for another 24 h. Afterwards, cells were incubated with 0.5 mg mL^−1 MTT solution for at least 4 h at 37 °C and 5% CO2. Then culture media was removed and the formazan crystals attached to the bottom of the plate were dissolved with 200 µL of DMSO. Finally, UV-absorbance was measured at 595 nm in a microplate reader (Varioskan Flash Microplate reader, Thermo Scientific).

GSK-3β [3] = target: T1, GSK-3β; assay: Kinetic studies on GSK-3β (ADP-Glo Kinase Assay, varying ATP); type: biochemical; details: inhibitor at 0.5 and 1 μM, ATP 1 to 50 μM, GS-2 constant at 12.5 μM; Lineweaver–Burk
Description: To investigate the inhibitory mechanism of compounds 5 on GSK-3β, several kinetic experiments were performed using the ADP-Glo Kinase Assay. Kinetic experiments varying both ATP (from 1 to 50 μM) and the inhibitor (at 0.5 and 1 μM) concentrations were performed, while the concentration of GS-2 was kept constant at 12.5 μM.

[4] = PAMPA-BBB, reported permeability; cited from earlier work

T1 sequence (P49841 whole entry): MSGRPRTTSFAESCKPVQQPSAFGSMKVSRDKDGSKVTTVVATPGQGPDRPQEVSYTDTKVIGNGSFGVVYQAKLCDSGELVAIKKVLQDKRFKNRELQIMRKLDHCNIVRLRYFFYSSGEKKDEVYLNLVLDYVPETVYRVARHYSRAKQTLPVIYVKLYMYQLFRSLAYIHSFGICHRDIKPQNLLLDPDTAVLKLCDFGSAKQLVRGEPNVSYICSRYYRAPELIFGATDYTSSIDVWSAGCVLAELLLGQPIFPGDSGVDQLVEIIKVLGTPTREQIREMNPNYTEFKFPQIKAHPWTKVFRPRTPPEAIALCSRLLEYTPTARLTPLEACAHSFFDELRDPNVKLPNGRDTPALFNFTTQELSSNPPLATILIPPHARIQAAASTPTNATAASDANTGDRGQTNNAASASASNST

SMILES	Papp at 4 h [2] [×10⁻⁶ cm/s]	BBB prediction [2]	IC50 (GSK-3β [1]) [µM]	melting point	other results
O=c1[nH]nnc2c1cnn2-c1ccccc1 [4a]	–	–	–	–	GSK-3 inhibition at a fixed compound concentration (GSK-3β [1]): inactive
O=c1[nH]nnc2c1cnn2-c1ccc(F)cc1 [4e]	–	–	–	–	GSK-3 inhibition at a fixed compound concentration (GSK-3β [1]): inactive
CCOC(=O)c1c2nn[nH]c(=O)c2nn1-c1ccccc1 [5a, ethyl 4-oxo-6-phenyl-4,6-dihydro-3H-pyrazolo[4,3-d][1,2,3]triazine-7-carboxylate]	1.1 ± 0.6	CNS−	4 ± 0.2	191.5 to 193 °C	–
CCOC(=O)c1c2nn[nH]c(=O)c2nn1-c1ccc(C)cc1 [5b, ethyl 4-oxo-6-(p-tolyl)-4,6-dihydro-3H-pyrazolo[4,3-d][1,2,3]triazine-7-carboxylate]	2.3 ± 0.3	CNS+/−	0.9 ± 0.1	193 to 196 °C	cell viability (MTT test) in OA-induced neurodegeneration cell model (SH-SY5Y cells): able to increase the cell viability; type of inhibition on GSK-3 (GSK-3β [3]): ATP-competitive
CCOC(=O)c1c2nn[nH]c(=O)c2nn1-c1ccc(OC)cc1 [5c, ethyl 6-(4-methoxyphenyl)-4-oxo-4,6-dihydro-3H-pyrazolo[4,3-d][1,2,3]triazine-7-carboxylate]	1.6 ± 0.5	CNS+/−	1.7 ± 0.3	194 °C (dec.)	–
CCOC(=O)c1c2nn[nH]c(=O)c2nn1-c1ccc(Cl)cc1 [5e, ethyl 6-(4-chlorophenyl)-4-oxo-4,6-dihydro-3H-pyrazolo[4,3-d][1,2,3]triazine-7-carboxylate]	2.9 ± 0.7	CNS+/−	3.3 ± 0.3	198 °C (dec.)	ability to cross the BBB by passive permeation [2]: in the limit of a positive prediction
CCOC(=O)c1c2nn[nH]c(=O)c2nn1-c1ccc(Br)cc1 [5f, ethyl 6-(4-bromophenyl)-4-oxo-4,6-dihydro-3H-pyrazolo[4,3-d][1,2,3]triazine-7-carboxylate]	3.2 ± 0.1	CNS+ (CNS + when they present a permeability >3.1 × 10^−6 cm s^−1)	1.4 ± 0.4	195 °C (dec.)	cell viability (MTT test) in OA-induced neurodegeneration cell model (SH-SY5Y cells): able to increase the cell viability; ability to cross the BBB by passive permeation [2]: would be able to cross the BBB by passive permeation
CCOC(=O)c1c2nn[nH]c(=O)c2nn1-c1ccc(I)cc1 [5g, ethyl 6-(4-iodophenyl)-4-oxo-4,6-dihydro-3H-pyrazolo[4,3-d][1,2,3]triazine-7-carboxylate]	5 ± 1	CNS+ (CNS + when they present a permeability >3.1 × 10^−6 cm s^−1)	0.8 ± 0.2	198 °C (dec.)	cell viability (MTT test) in OA-induced neurodegeneration cell model (SH-SY5Y cells): able to increase the cell viability; ability to cross the BBB by passive permeation [2]: would be able to cross the BBB by passive permeation
Cn1c(=O)c2c(ncn2C)n(C)c1=O [Caffeine, reference compound]	1.1 ± 0.4	–	–	–	–
CNCCCN1c2ccccc2CCc2ccccc21 [Desipramine, reference compound]	10.4 ± 0.1	–	–	–	–
CCn1cc(C(=O)O)c(=O)c2cc(F)c(N3CCNCC3)nc21 [Enoxacine, reference compound]	1.1 ± 0.6	–	–	–	–
C=C1[C@@H](O)[C@@H]2O[C@]3(CC[C@H](/C=C/[C@@H](C)[C@@H]4CC(C)=C[C@@]5(O[C@H](C[C@@](C)(O)C(=O)O)CC[C@H]5O)O4)O3)CC[C@H]2O[C@@H]1[C@@H](O)C[C@H](C)[C@H]1O[C@@]2(CCCCO2)CC[C@H]1C [OA, okadaic acid, reference compound]	–	–	–	–	decrease in cell viability (SH-SY5Y cells; OA at 30 nM, MTT): higher than 70%
CN1C(C(=O)Nc2ccccn2)=C(O)c2ccccc2S1(=O)=O [Piroxicam]	–	–	–	–	Pe bibli. [4]: 2.5 10^−6 cm s^−1
CN(C)CCCN1c2ccccc2Sc2ccccc21 [Promazine, reference compound]	8.4 ± 0.3	–	–	–	Pe bibli. [4]: 8.8 10^−6 cm s^−1
Cn1sc(=O)n(Cc2ccccc2)c1=O [TDZD-8, reference compound]	–	–	–	–	cell viability (MTT test) in OA-induced neurodegeneration cell model (SH-SY5Y cells): increase the cell viability
